Data: PMC7597670 (Bioorganic & medicinal chemistry letters, 2010)

Legend:
[1] = Pharmacokinetics after single oral and intravenous administration in rats; settings: for AUC / Cmax: rat, plasma, po, 10 mg/kg; for BA: rats, 10 mg/kg po vs 3 mg/kg iv
human CCR5 = human CCR5 (Homo sapiens, UniProt P51681); assay type: cell-based; settings: versus the other three stereoisomers of the hydroxylated analog of 1
HIV-1MM (R5MDR) = settings: read-out: Anti-HIV-1 activity IC50 HIV-1MM (R5MDR); inhibition of HIV p24 antigen expression in PBMC; multidrug-resistant
HIV-1Ba-L (R5) = assay: Anti-HIV-1 activity: inhibition of HIV p24 antigen expression in PBMC, HIV-1Ba-L; assay type: cell-based; settings: read-out: Anti-HIV-1 activity IC50 HIV-1Ba-L (R5)

Chain of human CCR5 (P51681 whole entry): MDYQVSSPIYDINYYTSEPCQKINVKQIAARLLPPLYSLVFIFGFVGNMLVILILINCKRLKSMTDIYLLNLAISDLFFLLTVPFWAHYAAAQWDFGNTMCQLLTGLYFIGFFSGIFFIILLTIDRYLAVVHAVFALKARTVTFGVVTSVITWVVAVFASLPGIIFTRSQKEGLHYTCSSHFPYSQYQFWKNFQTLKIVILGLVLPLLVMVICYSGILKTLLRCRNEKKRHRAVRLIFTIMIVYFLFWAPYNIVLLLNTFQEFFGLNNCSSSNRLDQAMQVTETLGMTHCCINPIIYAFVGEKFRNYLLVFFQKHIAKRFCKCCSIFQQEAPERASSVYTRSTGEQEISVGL

CCCCN1C(=O)C(CC(C)C)NC(=O)C12CCN(Cc1ccc(Oc3ccccc3)cc1)CC2.Cl (stereo not drawn) [Compound 1]
AUC [1]: 96.7 ng·h/mL
Cmax [1]: 33.3 ng/mL

CCCCN1C(=O)C(CC2CCCCC2)NC(=O)C12CCN(Cc1ccc(Oc3ccccc3)cc1)CC2.Cl (stereo not drawn) [Compound 2]
AUC [1]: 24.8 ng·h/mL
Cmax [1]: 5.6 ng/mL
BA [1]: 1.9%

CCCCN1C(=O)[C@@H]([C@H](O)C(C)C)NC(=O)C12CCN(Cc1ccc(Oc3ccccc3)cc1)CC2.Cl [Compound 3]
fold higher potency than the other isomers in Ca assay (human CCR5): 4.5-12 fold

CCCCN1C(=O)[C@H](CC2CCCCC2)NC(=O)C12CCN(Cc1ccc(Oc3ccc(C(=O)O)cc3)cc1)CC2.Cl [Compound 5]
BA [1]: 34%

SCH-351125
IC50 (HIV-1MM (R5MDR)): 3 ± 0.5 nM
IC50 (HIV-1Ba-L (R5)): 4 ± 2 nM
